Test results taken from patent US20070128217A1 (priority 2003, published 2007).

Legend:
[1] = system: control sera (pooled serum of ten healthy LUMC hospital workers; commercial negative donor pooled serum from the Dutch bloodbank); type: binding, human; design: Binding of Control serum LUMC to linear peptides / Binding of Control serum Blood-bank to linear peptides / Binding of Control serum LUMC to looped peptides / Binding of Control Serum Blood-Bank to Looped peptides / Binding of Control serum LUMC to linear peptides of the protein M of SARS-CoV Urbani / Binding of Control serum Blood-bank to linear peptides of the protein M of SARS-CoV Urbani / Binding of Control serum LUMC to looped peptides of the protein M of SARS-CoV Urbani / Binding of Control Serum Blood-Bank to Looped peptides of the protein M of SARS-CoV Urbani: unit not given here
[2] = system: antibodies in sera from SARS patients (sera 1a, 1b, 2, 6, 37, 62, London, SARS-yellow, SARS-green); type: binding, human; design: Binding of serum 6 to linear peptides of protein X1 of SARS-CoV Urbani / Binding of serum 37 to linear peptides of protein X1 of SARS-CoV Urbani / Binding of serum 6 to looped/cyclic peptide (PEPSCAN-ELISA) / Binding of serum 37 to looped/cyclic peptide (PEPSCAN-ELISA) / Binding of serum 37 to looped/cyclic peptides of protein X1 of SARS-CoV Urbani / Binding of serum 6 to linear peptides of protein X2 / Binding of serum 37 to linear peptides of protein X2 / Binding of serum 37 to looped/cyclic peptides of protein X2 of SARS-CoV Urbani / Binding of serum 6 to linear peptides of protein M of SARS-CoV Urbani / Binding of serum 37 to linear peptides of protein M of SARS-CoV Urbani / Binding of serum 6 to looped/cyclic peptides of protein M of SARS-CoV Urbani / Binding of serum 37 to looped/cyclic peptides of protein M of SARS-CoV Urbani / Binding of serum 6 to linear peptides of protein X3 of SARS-CoV Urbani / Binding of serum 37 to linear peptides of protein X3 of SARS-CoV Urbani / Binding of serum 37 to looped/cyclic peptides of protein X3 of SARS-CoV Urbani / Binding of serum 6 to linear peptides of protein X4 of SARS-CoV Urbani / Binding of serum 37 to linear peptides of protein X4 of SARS-CoV Urbani / Binding of serum 37 to looped/cyclic peptides of protein X4 of SARS-CoV Urbani / Binding of serum 6 to linear peptides of protein X5 of SARS-CoV Urbani / Binding of serum 37 to linear peptides of protein X5 of SARS-CoV Urbani / Binding of serum 37 to looped/cyclic peptides of protein X5 of SARS-CoV Urbani / Binding of serum 6 to linear peptides of protein N of SARS-CoV Urbani / Binding of serum 37 to linear peptides of protein N of SARS-CoV Urbani / Binding of serum 6 to linear peptide (PEPSCAN-ELISA) / Binding of serum 1a to looped/cyclic peptides of protein N of SARS-CoV Urbani / Binding of serum 1b to looped/cyclic peptides of protein N of SARS-CoV Urbani / Binding of serum 2 to looped/cyclic peptides of protein N of SARS-CoV Urbani / Binding of serum 6 to looped/cyclic peptides of protein N of SARS-CoV Urbani / Binding of serum 37 to looped/cyclic peptides of protein N of SARS-CoV Urbani / Binding of serum 62 to looped/cyclic peptides of protein N of SARS-CoV Urbani / Binding of serum London to looped/cyclic peptides of protein N of SARS-CoV Urbani / Binding of serum SARS-green to looped/cyclic peptides of protein N of SARS-CoV Urbani: unit not given here
[3] = system: rabbit serum obtained by immunizing a rabbit with the SARS-CoV strain Frankfurt 1; type: binding; design: Binding of a rabbit serum to linear peptides / Binding of a rabbit serum to looped peptides / Rabbit serum linear peptides / Rabbit serum looped peptides / Binding of a rabbit serum to linear peptides of protein N of SARS-CoV Urbani (Rabbit serum linear peptides) / Binding of a rabbit serum to looped/cyclic peptides of protein N of SARS-CoV Urbani (Rabbit serum looped peptides): unit not given here

MWSFNPETNILLNVP
Binding of Control Serum Blood-Bank to Looped peptides of the protein M of SARS-CoV Urbani [1]: 0.8
Binding of Control serum Blood-bank to linear peptides of the protein M of SARS-CoV Urbani [1]: 0.9
Binding of Control serum LUMC to linear peptides of the protein M of SARS-CoV Urbani [1]: 0.5
Binding of Control serum LUMC to looped peptides of the protein M of SARS-CoV Urbani [1]: 0.8
Binding of serum 1a to linear peptides of protein M of SARS-CoV Urbani [2]: 0.8
Binding of serum 1a to looped/cyclic peptides of protein M of SARS-CoV Urbani [2]: 0.8
Binding of serum 1b to linear peptides of protein M of SARS-CoV Urbani [2]: 0.5
Binding of serum 1b to looped/cyclic peptides of protein M of SARS-CoV Urbani [2]: 0.7
Binding of serum 2 to linear peptides of protein M of SARS-CoV Urbani [2]: 0.8
Binding of serum 2 to looped/cyclic peptides of protein M of SARS-CoV Urbani [2]: 0.9
Binding of serum 6 to linear peptides of protein M of SARS-CoV Urbani [2]: 0.4
Binding of serum 6 to looped/cyclic peptides of protein M of SARS-CoV Urbani [2]: 0.5
Binding of serum 37 to linear peptides of protein M of SARS-CoV Urbani [2]: 0.9
Binding of serum 37 to looped/cyclic peptides of protein M of SARS-CoV Urbani [2]: 0.8
Binding of serum 62 to linear peptides of protein M of SARS-CoV Urbani [2]: 0.9
Binding of serum 62 to looped/cyclic peptides of protein M of SARS-CoV Urbani [2]: 0.8
Binding of serum London to linear peptides of protein M of SARS-CoV Urbani [2]: 0.3
Binding of serum London to looped/cyclic peptides of protein M of SARS-CoV Urbani [2]: 0.2
Binding of serum SARS-green to linear peptides of protein M of SARS-CoV Urbani [2]: 0.3
Binding of serum SARS-green to looped/cyclic peptides of protein M of SARS-CoV Urbani [2]: 0.3
Binding of serum SARS-yellow to linear peptides of protein M of SARS-CoV Urbani [2]: 0.1
Binding of serum SARS-yellow to looped/cyclic peptides of protein M of SARS-CoV Urbani [2]: 0.6
Rabbit serum linear peptides [3]: 0.4
Rabbit serum looped peptides [3]: 0.2

NATFFIFNKLVKDPP
Binding of Control Serum Blood-Bank to Looped peptides [1]: 0.3
Binding of Control serum Blood-bank to linear peptides [1]: 0.4
Binding of Control serum LUMC to linear peptides [1]: 0.4
Binding of Control serum LUMC to looped peptides [1]: 0.4
Binding of serum 1a to linear peptides of protein X1 of SARS-CoV Urbani [2]: 0.6
Binding of serum 1a to looped/cyclic peptides of protein X1 of SARS-CoV Urbani [2]: 0.5
Binding of serum 1b to linear peptides of protein X1 of SARS-CoV Urbani [2]: 0.5
Binding of serum 1b to looped/cyclic peptides of protein X1 of SARS-CoV Urbani [2]: 0.3
Binding of serum 2 to linear peptides of protein X1 of SARS-CoV Urbani [2]: 0.4
Binding of serum 2 to looped/cyclic peptides of protein X1 of SARS-CoV Urbani [2]: 0.3
Binding of serum 6 to linear peptides of protein X1 of SARS-CoV Urbani [2]: 0.4
Binding of serum 6 to looped/cyclic peptides of protein X1 of SARS-CoV Urbani [2]: 0.4
Binding of serum 37 to linear peptides of protein X1 of SARS-CoV Urbani [2]: 0.5
Binding of serum 37 to looped/cyclic peptides of protein X1 of SARS-CoV Urbani [2]: 0.4
Binding of serum 62 to linear peptides of protein X1 of SARS-CoV Urbani [2]: 0.4
Binding of serum 62 to looped/cyclic peptides of protein X1 of SARS-CoV Urbani [2]: 0.4
Binding of serum London to linear peptides of protein X1 of SARS-CoV Urbani [2]: 0.2
Binding of serum London to looped/cyclic peptides of protein X1 of SARS-CoV Urbani [2]: 0.2
Binding of serum SARS-green to linear peptides of protein X1 of SARS-CoV Urbani [2]: 0.2
Binding of serum SARS-green to looped/cyclic peptides of protein X1 of SARS-CoV Urbani [2]: 0.2
Binding of serum SARS-yellow to linear peptides of protein X1 of SARS-CoV Urbani [2]: 0.2
Binding of serum SARS-yellow to looped/cyclic peptides of protein X1 of SARS-CoV Urbani [2]: 0.0
Binding of a rabbit serum to linear peptides [3]: 0.1
Binding of a rabbit serum to looped peptides [3]: 0.3

NILLNVPLRGTIVTR
Binding of Control Serum Blood-Bank to Looped peptides of the protein M of SARS-CoV Urbani [1]: 0.8
Binding of Control serum Blood-bank to linear peptides of the protein M of SARS-CoV Urbani [1]: 0.8
Binding of Control serum LUMC to linear peptides of the protein M of SARS-CoV Urbani [1]: 0.3
Binding of Control serum LUMC to looped peptides of the protein M of SARS-CoV Urbani [1]: 0.7
Binding of serum 1a to linear peptides of protein M of SARS-CoV Urbani [2]: 0.7
Binding of serum 1b to linear peptides of protein M of SARS-CoV Urbani [2]: 0.5
Binding of serum 2 to linear peptides of protein M of SARS-CoV Urbani [2]: 0.8
Binding of serum 6 to linear peptides of protein M of SARS-CoV Urbani [2]: 0.4
Binding of serum 37 to linear peptides of protein M of SARS-CoV Urbani [2]: 0.6
Binding of serum 62 to linear peptides of protein M of SARS-CoV Urbani [2]: 0.7
Binding of serum London to linear peptides of protein M of SARS-CoV Urbani [2]: 0.4
Binding of serum SARS-green to linear peptides of protein M of SARS-CoV Urbani [2]: 0.3
Binding of serum SARS-yellow to linear peptides of protein M of SARS-CoV Urbani [2]: 0.1
Recognition of the peptide by sera of SARS-CoV infected individuals, and form (linear, looped/cyclic) in which it is recognized [2]: recognized in looped/cyclic form
Rabbit serum linear peptides [3]: 0.5
Rabbit serum looped peptides [3]: 0.4

NLLLLFVTIYSHLLL
Binding of Control Serum Blood-Bank to Looped peptides [1]: 0.5
Binding of Control serum Blood-bank to linear peptides [1]: 0.4
Binding of Control serum LUMC to linear peptides [1]: 0.5
Binding of Control serum LUMC to looped peptides [1]: 0.6
Binding of serum 1a to linear peptides of protein X1 of SARS-CoV Urbani [2]: 0.7
Binding of serum 1a to looped/cyclic peptide (PEPSCAN-ELISA) [2]: 0.5
Binding of serum 1b to linear peptides of protein X1 of SARS-CoV Urbani [2]: 0.5
Binding of serum 1b to looped/cyclic peptide (PEPSCAN-ELISA) [2]: 0.4
Binding of serum 2 to linear peptides of protein X1 of SARS-CoV Urbani [2]: 0.5
Binding of serum 2 to looped/cyclic peptide (PEPSCAN-ELISA) [2]: 0.4
Binding of serum 6 to linear peptides of protein X1 of SARS-CoV Urbani [2]: 0.4
Binding of serum 6 to looped/cyclic peptide (PEPSCAN-ELISA) [2]: 0.2
Binding of serum 37 to linear peptides of protein X1 of SARS-CoV Urbani [2]: 0.5
Binding of serum 37 to looped/cyclic peptide (PEPSCAN-ELISA) [2]: 0.4
Binding of serum 62 to linear peptides of protein X1 of SARS-CoV Urbani [2]: 0.4
Binding of serum 62 to looped/cyclic peptide (PEPSCAN-ELISA) [2]: 0.5
Binding of serum London to linear peptides of protein X1 of SARS-CoV Urbani [2]: 0.2
Binding of serum London to looped/cyclic peptide (PEPSCAN-ELISA) [2]: 0.2
Binding of serum SARS-green to linear peptides of protein X1 of SARS-CoV Urbani [2]: 0.1
Binding of serum SARS-green to looped/cyclic peptide (PEPSCAN-ELISA) [2]: 0.2
Binding of serum SARS-yellow to linear peptides of protein X1 of SARS-CoV Urbani [2]: 0.3
Binding of serum SARS-yellow to looped/cyclic peptide (PEPSCAN-ELISA) [2]: 0.4
Binding of a rabbit serum to linear peptides [3]: 0.2
Binding of a rabbit serum to looped peptides [3]: 0.6
